Test results taken from patent US11339419B2, “Scavenger protein(s) for improved preservation of analyte detection sensor(s) and method(s) of use thereof” (Siemens Healthcare Diagnostics Inc., priority 2017, dated 2022).
Values joined by “and” are separate entries in the source; they are usually repeats but may differ in a detail not shown here. Equal entries are not always repeated.

How the values were obtained:
Format in all cases: biochemical
[1] = system: sarcosine oxidase (Toyobo); assay: Toyobo Sarcosine Oxidase Enzyme Absorbance with BSA and MIT; settings: 0 mg/mL BSA; for Sarcosine Oxidase Enzyme Absorbance, MEAN of 1-5 / Sarcosine Oxidase Enzyme Absorbance, solutions 1-5: 37° C.
Experimental: (§1) Tables 1-4 depict aqueous solutions comprising varying concentrations of BSA (at concentrations of 0 mg/mL, 5 mg/mL, 25 mg/mL, and 50 mg/mL), varying concentrations of MIT (at concentrations of 50 parts per million and 100 parts per million) or Proclin™ 300 (at concentrations of 0.7% and 1.4%) biocides over a particular time period (measurements were taken at days 0, 4, and 14 after exposure of the enzyme(s) to the aqueous solutions) and the associated enzyme absorbance measurements for sarcosine oxidase (commercially offered for sale by BBI Solutions and Toyobo). Absorbance measurements of the sarcosine oxidase enzyme(s) were taken via spectrophotometer for each aqueous solution (represented as columns 1-5 in Tables 1-4—column 6 is a blank), the absorbance being directly proportional to the enzyme activity being measured-which for Tables 1-4 is sarcosine oxidase enzyme activity. Accordingly, the higher the absorbance measurement, the higher the enzyme activity of sarcosine oxidase. Columns 7-11 represent five replicate readings in which the aqueous solution only contains BSA (i.e., there is no biocide(s) present in the aqueous solution). In addition, the mean values, standard deviations, and coefficients of variation are also presented for the enzyme activity/absorbance of each aqueous solution. All measurements were taken at 37° C.
As depicted below in Table 2, sarcosine oxidase (commercially offered for sale by Toyobo) enzyme activity is measured against various concentrations of MIT (biocide) and BSA (scavenger protein) over a period of 14 days (with absorbance measurements taken at 0, 4, and 14 days) for five different aqueous solutions (represented as columns 1-5-column 6 is a blank).

[2] = system: sarcosine oxidase (BBI Solutions); assay: BBI Solutions Sarcosine Oxidase Enzyme Absorbance with BSA and MIT; settings: 0 mg/mL BSA; for Sarcosine Oxidase Enzyme Absorbance, MEAN of 1-5 / Sarcosine Oxidase Enzyme Absorbance, solutions 1-5: 37° C.
Experimental: as §1
As depicted below in Table 1, sarcosine oxidase (commercially offered for sale by BBI Solutions) enzyme activity is measured against various concentrations of MIT (biocide) and BSA (scavenger protein) over a period of 14 days (with absorbance measurements taken at 0, 4, and 14 days) for five different aqueous solutions (represented as columns 1-5—column 6 is a blank).

[3] = system: creatininase (Toyobo); assay: Toyobo Creatininase Enzyme Absorbance with BSA and MIT; settings: 0 mg/mL BSA
Text: Absorbance measurements of the creatininase enzyme(s) were taken via spectrophotometer for each aqueous solution (represented as columns 1-5 in Tables 5-8—column 6 is a blank), the absorbance being directly proportional to the enzyme activity being measured-which for Tables 5-8 is creatininase enzyme activity. Accordingly, the higher the absorbance measurement, the higher the enzyme activity of creatininase. Columns 7-11 represent five replicate readings in which the solution only contains BSA (i.e., there is no biocide(s) present in the solution). In addition, the mean values, standard deviations, and coefficients of variation are all presented for the enzyme activity/absorbance of each aqueous solution. All measurements were taken at 37° C.
As depicted in Table 6, creatininase (commercially offered for sale by Toyobo) enzyme activity is measured against various concentrations of MIT (biocide) and BSA (scavenger protein) over a period of 14 days (with absorbance measurement taken at 0, 4, and 14 days) for five different aqueous solutions (represented as columns 1-5—column 6 is a blank).

[4] = system: creatininase (BBI Solutions); assay: BBI Solutions Creatininase Enzyme Absorbance with BSA and MIT; settings: 0 mg/mL BSA
Experimental: Table 5-8 depict aqueous solutions comprising varying concentrations of BSA (at concentrations of 0 mg/mL, 5 mg/mL, 25 mg/mL, and 50 mg/mL), varying concentrations of MIT (at concentrations of 50 parts per million and 100 parts per million) or Proclin™ 300 (at concentrations of 0.7% and 1.4%) biocide over a particular time period (measurements were taken at days 0, 4, and 14 after exposure of the enzyme(s) to the particular aqueous solutions) and the associated enzyme absorbance measurements for creatininase (commercially offered for sale by BBI Solutions and Toyobo). Absorbance measurements of the creatininase enzyme(s) were taken via spectrophotometer for each aqueous solution (represented as columns 1-5 in Tables 5-8—column 6 is a blank), the absorbance being directly proportional to the enzyme activity being measured-which for Tables 5-8 is creatininase enzyme activity. Accordingly, the higher the absorbance measurement, the higher the enzyme activity of creatininase. Columns 7-11 represent five replicate readings in which the solution only contains BSA (i.e., there is no biocide(s) present in the solution). In addition, the mean values, standard deviations, and coefficients of variation are all presented for the enzyme activity/absorbance of each aqueous solution. All measurements were taken at 37° C.
As depicted in Table 5, creatininase (commercially offered for sale by BBI Solutions) enzyme activity is measured against various concentrations of MIT (biocide) and BSA (scavenger protein) over a period of 14 days (with absorbance measurement taken at 0, 4, and 14 days) for five different aqueous solutions (represented as columns 1-5—column 6 is a blank).

In the case of `Cn1sccc1=O` [MIT, methylisothiazolinone, reference compound], the “% Bias” value ([1]; Day 0, 50 ppm MIT vs no MIT) is reported as 0.8%, the “Sarcosine Oxidase Enzyme Absorbance, MEAN of 1-5” value ([1]; Day 0, 50 ppm MIT) is reported as 1.42 and the “Sarcosine Oxidase Enzyme Absorbance, solutions 1-5” value ([1]; Day 0, 50 ppm MIT) is reported as 1.463 and 1.462 and 1.447 and 1.446. For the same compound, the “% Bias” value ([1]; Day 0, 100 ppm MIT vs no MIT) was 2.6%, the “Sarcosine Oxidase Enzyme Absorbance, MEAN of 1-5” value ([1]; Day 0, 100 ppm MIT) was 1.44 and the “Sarcosine Oxidase Enzyme Absorbance, solutions 1-5” value ([1]; Day 0, 100 ppm MIT) was 1.491 and 1.45 and 1.5 and 1.478 and 1.464. For the same compound, the “% Bias” value ([1]; Day 4, 50 ppm MIT vs no MIT) was 101.5%, the “Sarcosine Oxidase Enzyme Absorbance, MEAN of 1-5” value ([1]; Day 4, 50 ppm MIT) was 0.25 and the “Sarcosine Oxidase Enzyme Absorbance, solutions 1-5” value ([1]; Day 4, 50 ppm MIT) was 0.277 and 0.275 and 0.272 and 0.283 and 0.282. For the same compound, the “% Bias” value ([1]; Day 4, 100 ppm MIT vs no MIT) was 115.9%, the “Sarcosine Oxidase Enzyme Absorbance, MEAN of 1-5” value ([1]; Day 4, 100 ppm MIT) was 0.27 and the “Sarcosine Oxidase Enzyme Absorbance, solutions 1-5” value ([1]; Day 4, 100 ppm MIT) was 0.302 and 0.304 and 0.298 and 0.317. For the same compound, the “% Bias” value ([1]; Day 14, 50 ppm MIT vs no MIT) was 7.4%, the “Sarcosine Oxidase Enzyme Absorbance, MEAN of 1-5” value ([1]; Day 14, 50 ppm MIT) was 0.11 and the “Sarcosine Oxidase Enzyme Absorbance, solutions 1-5” value ([1]; Day 14, 50 ppm MIT) was 0.154 and 0.153 and 0.151 and 0.159 and 0.16. The “% Bias” value ([1]; Day 14, 100 ppm MIT vs no MIT) was 8.8%, the “Sarcosine Oxidase Enzyme Absorbance, MEAN of 1-5” value ([1]; Day 14, 100 ppm MIT) was 0.13 and the “Sarcosine Oxidase Enzyme Absorbance, solutions 1-5” value ([1]; Day 14, 100 ppm MIT) was 0.163 and 0.176 and 0.168 and 0.172. The “% Bias” value ([2]; Day 0, 50 ppm MIT vs no MIT) was 3.8%, the “Sarcosine Oxidase Enzyme Absorbance, MEAN of 1-5” value ([2]; Day 0, 50 ppm MIT) was 1.43 and the “Sarcosine Oxidase Enzyme Absorbance, solutions 1-5” value ([2]; Day 0, 50 ppm MIT) was 1.463 and 1.459 and 1.507 and 1.474 and 1.477. For the same compound, the “% Bias” value ([2]; Day 0, 100 ppm MIT vs no MIT) was 1.3%, the “Sarcosine Oxidase Enzyme Absorbance, MEAN of 1-5” value ([2]; Day 0, 100 ppm MIT) was 1.39 and the “Sarcosine Oxidase Enzyme Absorbance, solutions 1-5” value ([2]; Day 0, 100 ppm MIT) was 1.446 and 1.428 and 1.422 and 1.427 and 1.423. The “% Bias” value ([2]; Day 4, 50 ppm MIT vs no MIT) was 1.5%, the “Sarcosine Oxidase Enzyme Absorbance, MEAN of 1-5” value ([2]; Day 4, 50 ppm MIT) was 1.35 and the “Sarcosine Oxidase Enzyme Absorbance, solutions 1-5” value ([2]; Day 4, 50 ppm MIT) was 1.388 and 1.397 and 1.401 and 1.346 and 1.368. The “% Bias” value ([2]; Day 4, 100 ppm MIT vs no MIT) was 2.0%, the “Sarcosine Oxidase Enzyme Absorbance, MEAN of 1-5” value ([2]; Day 4, 100 ppm MIT) was 1.35 and the “Sarcosine Oxidase Enzyme Absorbance, solutions 1-5” value ([2]; Day 4, 100 ppm MIT) was 1.38 and 1.379 and 1.384 and 1.353. The “% Bias” value ([2]; Day 14, 50 ppm MIT vs no MIT) was −8.8%, the “Sarcosine Oxidase Enzyme Absorbance, MEAN of 1-5” value ([2]; Day 14, 50 ppm MIT) was 0.24 and the “Sarcosine Oxidase Enzyme Absorbance, solutions 1-5” value ([2]; Day 14, 50 ppm MIT) was 0.272 and 0.267 and 0.265 and 0.283 and 0.286. The “% Bias” value ([2]; Day 14, 100 ppm MIT vs no MIT) was −34.1%, the “Sarcosine Oxidase Enzyme Absorbance, MEAN of 1-5” value ([2]; Day 14, 100 ppm MIT) was 0.18 and the “Sarcosine Oxidase Enzyme Absorbance, solutions 1-5” value ([2]; Day 14, 100 ppm MIT) was 0.218 and 0.215 and 0.21 and 0.214 and 0.219. The “% Bias” value ([3]; Day 0, 50 ppm MIT vs no MIT) was 10.4%, the “Creatininase Enzyme Absorbance” value ([3]; Day 0, 50 ppm MIT) was 0.846 and 0.775 and 0.735 and 0.721 and 0.713 and the “MEAN” value ([3]; Day 0, 50 ppm MIT) was 0.56. For the same compound, the “% Bias” value ([3]; Day 0, 100 ppm MIT vs no MIT) was 3.8%, the “Creatininase Enzyme Absorbance” value ([3]; Day 0, 100 ppm MIT) was 0.937 and 0.871 and 0.866 and 0.827 and 0.836 and the “MEAN” value ([3]; Day 0, 100 ppm MIT) was 0.67. For the same compound, the “% Bias” value ([3]; Day 4, 50 ppm MIT vs no MIT) was 12.2%, the “Creatininase Enzyme Absorbance” value ([3]; Day 4, 50 ppm MIT) was 0.777 and 0.754 and 0.767 and 0.743 and 0.77 and the “MEAN” value ([3]; Day 4, 50 ppm MIT) was 0.55. The “% Bias” value ([3]; Day 4, 100 ppm MIT vs no MIT) was 9.8%, the “Creatininase Enzyme Absorbance” value ([3]; Day 4, 100 ppm MIT) was 0.745 and 0.768 and 0.763 and 0.748 and 0.792 and the “MEAN” value ([3]; Day 4, 100 ppm MIT) was 0.55. The “% Bias” value ([3]; Day 14, 50 ppm MIT vs no MIT) was 9.3%, the “Creatininase Enzyme Absorbance” value ([3]; Day 14, 50 ppm MIT) was 0.828 and 0.801 and 0.702 and 0.794 and 0.79 and the “MEAN” value ([3]; Day 14, 50 ppm MIT) was 0.55. For the same compound, the “% Bias” value ([3]; Day 14, 100 ppm MIT vs no MIT) was 5.1%, the “Creatininase Enzyme Absorbance” value ([3]; Day 14, 100 ppm MIT) was 0.794 and 0.774 and 0.784 and 0.73 and 0.78 and the “MEAN” value ([3]; Day 14, 100 ppm MIT) was 0.54. For the same compound, the “% Bias” value ([4]; Day 0, 50 ppm MIT vs no MIT) was 4.1%, the “Creatininase Enzyme Absorbance” value ([4]; Day 0, 50 ppm MIT) was 0.663 and 0.662 and 0.668 and 0.62 and 0.649 and the “MEAN” value ([4]; Day 0, 50 ppm MIT) was 0.45. For the same compound, the “% Bias” value ([4]; Day 0, 100 ppm MIT vs no MIT) was 0.7%, the “Creatininase Enzyme Absorbance” value ([4]; Day 0, 100 ppm MIT) was 0.765 and 0.721 and 0.731 and 0.712 and 0.723 and the “MEAN” value ([4]; Day 0, 100 ppm MIT) was 0.53. The “% Bias” value ([4]; Day 4, 50 ppm MIT vs no MIT) was 3.3%, the “Creatininase Enzyme Absorbance” value ([4]; Day 4, 50 ppm MIT) was 0.654 and 0.633 and 0.52 and 0.638 and the “MEAN” value ([4]; Day 4, 50 ppm MIT) was 0.41. The “% Bias” value ([4]; Day 4, 100 ppm MIT vs no MIT) was −2.3%, the “Creatininase Enzyme Absorbance” value ([4]; Day 4, 100 ppm MIT) was 0.616 and 0.604 and 0.597 and 0.523 and the “MEAN” value ([4]; Day 4, 100 ppm MIT) was 0.38. For the same compound, the “% Bias” value ([4]; Day 14, 50 ppm MIT vs no MIT) was −6.5%, the “Creatininase Enzyme Absorbance” value ([4]; Day 14, 50 ppm MIT) was 0.732 and 0.689 and 0.701 and 0.686 and 0.725 and the “MEAN” value ([4]; Day 14, 50 ppm MIT) was 0.44. For the same compound, the “% Bias” value ([4]; Day 14, 100 ppm MIT vs no MIT) was 7.0%, the “Creatininase Enzyme Absorbance” value ([4]; Day 14, 100 ppm MIT) was 0.755 and 0.699 and 0.714 and 0.707 and 0.716 and the “MEAN” value ([4]; Day 14, 100 ppm MIT) was 0.45.
